How the values were obtained:
zebrafish embryo = assay: Zebrafish embryo survival after prolonged exposure; type: in vivo
Method: We next addressed if BCI and related analogs are detrimental to zebrafish embryo survival after prolong exposure. […] The percentage of embryos that died after 24 hours treatment was 100% at 20 μM.

PTP1B = biological target: T1, PTP1B (Homo sapiens, UniProt P18031); assay: OMFP phosphatase assay, PTP1B; type: biochemical; conditions: n=3, OMFP substrate, 15.2 nM-300 μM; read-out: mean in vitro values, PTP1B
T1 sequence (P18031 1-435): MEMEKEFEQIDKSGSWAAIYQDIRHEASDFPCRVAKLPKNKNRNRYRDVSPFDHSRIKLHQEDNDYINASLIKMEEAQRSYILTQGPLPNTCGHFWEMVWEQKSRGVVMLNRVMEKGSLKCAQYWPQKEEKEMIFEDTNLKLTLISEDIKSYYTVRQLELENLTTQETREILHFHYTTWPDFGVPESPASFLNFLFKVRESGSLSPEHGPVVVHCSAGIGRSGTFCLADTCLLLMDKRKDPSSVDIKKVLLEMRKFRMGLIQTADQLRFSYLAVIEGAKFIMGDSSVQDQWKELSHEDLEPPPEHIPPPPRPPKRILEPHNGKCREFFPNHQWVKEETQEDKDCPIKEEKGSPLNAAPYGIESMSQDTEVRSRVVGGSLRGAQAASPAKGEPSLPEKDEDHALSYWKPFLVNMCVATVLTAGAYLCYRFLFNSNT
Method: Enzyme activities in the presence or absence of BCI were measured using the artificial substrate […] at concentrations equal to the Km of each enzyme (Cdc25B, PTP1B & Dusp3/VHR) and at optimal pH for individual enzyme activity in a 96-well microtiter plate assay based on previously described methods by Lazo et al. (J Med Chem 44, 4042-9 (2001) and Lazo, J. S. et al. Bioorg Med Chem 14, 5643-50 (2006)). Briefly, the standard assay conditions contained 0.02 mg/ml OMFP in assay buffer (30 mM Tris-HCl (pH8.0), 75 mM NaCl, 1 mM EDTA, 0.33% BSA and 1 mM DTT). Fluorescence emission was measured after a sixty-minute incubation period at ambient temperature using a multiwell plate reader (SpectraMax m5, […]; excitation 485 nm, emission 525 nm). Sodium orthovanadate (100 μM) was used as a positive control for full phosphatase inhibition. IC50 concentrations were determined from three experiments using 10 concentrations of BCI ranging from 300 μM to 15.2 nM and GraphPad Prism 5.0 software.

Dusp6 = biological target: T2, Dusp6 (Danio rerio, UniProt Q7T2L8); assay: Zebrafish mRNA microinjection, rescue of sef expression, dusp6; type: in vivo; conditions: 5 μM BCI, shield stage
T2 construct: expressed in transfected cells; host or cells: zebrafish embryos, 500 pg mRNA injected at the 1-2 cell stage
T2 sequence (Q7T2L8 1-382): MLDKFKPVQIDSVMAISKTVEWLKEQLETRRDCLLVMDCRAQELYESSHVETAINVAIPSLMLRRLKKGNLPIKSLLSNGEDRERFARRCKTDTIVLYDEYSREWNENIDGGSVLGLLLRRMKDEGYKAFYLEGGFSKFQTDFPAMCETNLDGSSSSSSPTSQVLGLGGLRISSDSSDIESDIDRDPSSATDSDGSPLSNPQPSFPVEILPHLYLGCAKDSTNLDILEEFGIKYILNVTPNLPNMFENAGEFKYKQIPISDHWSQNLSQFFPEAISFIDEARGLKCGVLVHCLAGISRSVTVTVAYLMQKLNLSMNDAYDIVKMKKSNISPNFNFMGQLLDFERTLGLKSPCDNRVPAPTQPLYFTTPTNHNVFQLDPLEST
Method: (§1) dusp6 and XFD mRNA for microinjection studies were generated as previously described (Tsang, M. et al. Development 131, 2769-79 (2004)). Both Dusp5 and Spry4 ORFs were amplified by RT-PCR from 24 hpf zebrafish with the following primers: […]
(§2) Amplified PCR products were subcloned into pCS2+, sequenced verified and mRNAs were synthesized as described previously. Embryos were injected with 500 pg mRNA at the 1-2 cell stage, treated with 5 μM BCI at the 1000-cell stage and fixed at shield stage for in situ hybridization.
(§3) In situ hybridization experiments were carried out as described previously (Kudoh, T. et al. Genome Res 11, 1979-87 (2001)). The probes eng3, krox20, sef, dusp6, gata4, nkx2.5, cmlc2, vmhc, scl, etsrp and hand2 were generated with a RNA labeling kit (Roche) (Tsang, M. et al. Development 131, 2769-79 (2004); Chen, J. N. et al. Development 122, 3809-16 (1996); Ekker, M., et al. Development 116, 1001-10 (1992); Liao, E. C. et al. Genes Dev 12, 621-6 (1998); Oxtoby, E. et al. Nucleic Acids Res 21, 1087-95 (1993); Pham, V. N. et al. Dev Biol 303, 772-83 (2007); Tsang, M., et al. Nat Cell Biol 4, 165-9 (2002); Yelon, D., et al. Dev Biol 214, 23-37 (1999); and Yelon, D. et al. Development 127, 2573-82 (2000)). The double fluorescent in situ hybridization protocol was described by Schoenbeck et al. (Dev Cell 13, 254-67 (2007)). […]

Dusp5 = assay: Zebrafish mRNA microinjection, rescue of sef expression, dusp5; type: in vivo; conditions: 5 μM BCI, shield stage
Method: as §1, §2, §3

[1] = tested on: FGF target genes sef and spry4; assay: Semi-quantitative RT-PCR of FGF target genes in treated embryos; type: in vivo, zebrafish; conditions: 24 hpf, 6 hours, 10 μM and 20 μM, n=3
Method: Zebrafish embryos were treated at 24 hpf for 6 hours with BCI at 10 μM and 20 μM followed by total RNA extraction with Trizol (Invitrogen). cDNA synthesis with SuperScript II Reverse Transcriptase (Invitrogen) was performed as described by manufacture's protocol and by Tsang et al. 17. For PCR reaction, HotMaster Taq (Eppendorf) was used with the following primers: […]
Cycle conditions were: 94° C. 30 sec, 55° C. 45 sec, 72° C. 40 sec, for 25 cycles. PCR products were resolved on 3% agarose gels.

Which results are given for `O=C1/C(=C/c2ccccc2)C(NC2CCCCC2)c2ccccc21` (stereo not drawn) [Compound 3, (E)-2-benzylidene-3-(cyclohexylamino)-2,3-dihydro-1H-inden-1-one]?
percentage of embryos that died after 24 hours treatment (zebrafish embryo; 20 μM, 24 hours): 100%; effect of prolonged exposure on embryos (zebrafish embryo; high doses (>10 μM) for 24 hours): embryo defects, such as tail necrosis and even death; IC50 (PTP1B): > 300 µM; sef expression in dusp6-injected embryos (Dusp6): rescued sef expression to control levels or higher; reversal of phenotype caused by Dusp5 over-expression (Dusp5): little or no effect; expression of sef and spry4 [1]: increase

— patent US9127016B2, “Small molecule inhibitors of Dusp6 and uses therefor” (University of Pittsburgh—Of the Commonwealth System of …, priority 2009, dated 2015)
